Source: patent US5457119A, “A89271 factors and processes for their production” (priority 1994, dated 1995)
Converted amounts (≈) assume the structure as drawn.

Tests used:
Assay type in all cases: cell-based
[1] = system: H8 human colon solid tumor cell line; assay: Disk diffusion soft agar colony formation assay; conditions: 200 zone units = 6 MM
Description: (§1) The method of performing the disk diffusion soft agar colony […] assay is described in Chapter 3 of Cytotoxic Anticancer Drugs: Models and Concepts for Drug Discovery and Development (Frederick A. Valeriote, et al., eds., 1990). In addition to the procedure taught in this reference, one mL ethanol was added to each dry factor in a vial, and the desired concentration of solution was placed on a paper disk. The disk was dried and then placed on soft agar plates as described in the reference.
H8 = human colon solid tumor cell line
(§2) ^2 Measurement in zone units; 200 zone units = 6 MM

[2] = system: Trichophyton mentagrophytes; assay: In vitro antifungal activity, RPMI and 10% fetal calf serum broth
Excerpt: (§3) In those tables, a dash or "N.T." means the material was not tested.

Candida albicans [3] = assay: as above
Excerpt: as §3

Aspergillus fumigatus = assay: In vitro antifungal activity, Sabouraud's and Dextrose broth
Excerpt: as §3

[4] = system: Trichophyton mentagrophytes; assay: as above
Excerpt: as §3

Candida albicans [5] = assay: as above
Excerpt: as §3

[6] = system: C38 murine colon solid tumor cell line; assay: Disk diffusion soft agar colony formation assay; conditions: 200 zone units = 6 MM
Description: as §1
C38 = murine colon solid tumor cell line
as §2

[7] = system: CX-1 human colon solid tumor cell line; assay: Disk diffusion soft agar colony formation assay; conditions: factor line, no dose given, 200 zone units = 6 MM
Description: as §1
CX1 = human colon solid tumor cell line
as §2

[8] = system: P03 murine pancreatic solid tumor cell line; assay: Disk diffusion soft agar colony formation assay; conditions: 200 zone units = 6 MM
Description: as §1
P03 = murine pancreatic solid tumor cell line
as §2

[9] = system: L1210 murine leukemia cell line; assay: Disk diffusion soft agar colony formation assay; conditions: 200 zone units = 6 MM
Description: as §1
L1210 = murine leukemia cell line
as §2

[10] = system: LML "Low Malignancy Line" fibroblast; assay: Disk diffusion soft agar colony formation assay; conditions: 200 zone units = 6 MM
Description: as §1
LML = "Low Malignancy Line" fibroblast
as §2

[11] = system: Mam17 murine mammary solid tumor cell line; assay: Disk diffusion soft agar colony formation assay; conditions: factor line, no dose given, 200 zone units = 6 MM
Description: as §1
Mam17 = murine mammary solid tumor cell line
as §2

[12] = unlabelled line below the (45 ug) line
[13] = Table 1, RPMI and 10% Fetal Calf Serum Broth
[14] = Table 3, RPMI & 10% Fetal Calf Serum Broth

Q: How did the “Measurement in zone units” value ([1]; 9 ug per disk) turn out when `[C-]#[N+]C12C3OC3C(C)(C)C3=Nc4cccc5c4C3(O)C1(O)C(CC(Cl)C2(C)C=C)C5(C)C` (centres unmarked) [A89271 A] was run?
A: 200-330 zone units

Q: And the “Measurement in zone units” value ([1]; 11 ug per disk)?
A: 250-420 zone units

Q: And the “Measurement in zone units” value [1, 12]?
A: 300-470 zone units

Q: And the MIC [2, 13]?
A: > 20 µg/mL

Q: And the MIC (Candida albicans [3]; [13])?
A: 2.5 µg/mL (≈ 5.52 µM)

Q: And the MIC (Aspergillus fumigatus; Table 2)?
A: 80 µg/mL (≈ 177 µM)

Q: And the MIC ([4]; Table 2)?
A: 10 µg/mL (≈ 22.1 µM)

Q: What about the MIC (Candida albicans [5]; Table 2) of the same compound?
A: 2.5 µg/mL (≈ 5.52 µM)

Q: What about the “Measurement in zone units” value ([6]; 9 ug per disk) of the same compound?
A: 480 zone units

Q: What about the “Measurement in zone units” value ([6]; 11 ug per disk) of the same compound?
A: 610 zone units

Q: And the “Measurement in zone units” value ([6]; 45 ug per disk)?
A: 670 zone units

Q: What about the “Measurement in zone units” value ([6]; factor line, no dose given) of the same compound?
A: 650 zone units

Q: And the “Measurement in zone units” value [6, 12]?
A: 750 zone units

Q: And the “Measurement in zone units” value [7]?
A: 600-650 zone units

Q: What about the “Measurement in zone units” value ([8]; 9 ug per disk) of the same compound?
A: 500 zone units

Q: What about the “Measurement in zone units” value ([8]; factor line, no dose given) of the same compound?
A: 650 zone units

Q: What about the “Measurement in zone units” value ([9]; 9 ug per disk) of the same compound?
A: 200-250 zone units

Q: What about the “Measurement in zone units” value ([9]; 11 ug per disk) of the same compound?
A: 250-320 zone units

Q: What about the “Measurement in zone units” value ([9]; factor line, no dose given) of the same compound?
A: 0-400 zone units

Q: And the “Measurement in zone units” value ([10]; 11 ug per disk)?
A: 0-300 zone units

Q: What about the “Measurement in zone units” value [10, 12] of the same compound?
A: 0-300 zone units

Q: With `[C-]#[N+]C1C2c3c(C(C)(C)C=C)[nH]c4cccc(c34)C(C)(C)C2CC(Cl)C1(C)C=C` (centres unmarked) [A89271 B] as the compound, how does the “Measurement in zone units” value ([1]; 20 ug per disk) read?
A: 180 zone units

Q: And the “Measurement in zone units” value ([1]; 80 ug per disk)?
A: 200-300 zone units

Q: What about the “Measurement in zone units” value [11] of the same compound?
A: 220 zone units

Q: And the MIC [2, 14]?
A: 2.5 µg/mL (≈ 6.14 µM)

Q: And the MIC (Candida albicans [3]; [14])?
A: 1.25 µg/mL (≈ 3.07 µM)

Q: What about the MIC (Aspergillus fumigatus; Table 4) of the same compound?
A: 20 µg/mL (≈ 49.1 µM)

Q: What about the MIC ([4]; Table 4) of the same compound?
A: > 80 µg/mL

Q: And the MIC (Candida albicans [5]; Table 4)?
A: 1.25 µg/mL (≈ 3.07 µM)

Q: And the “Measurement in zone units” value ([6]; 20 ug per disk)?
A: 260-400 zone units

Q: What about the “Measurement in zone units” value ([6]; 80 ug per disk) of the same compound?
A: 430 zone units

Q: And the “Measurement in zone units” value [7]?
A: 220 zone units

Q: What about the “Measurement in zone units” value ([9]; 20 ug per disk) of the same compound?
A: 100-200 zone units

Q: What about the “Measurement in zone units” value ([9]; 80 ug per disk) of the same compound?
A: 200-250 zone units

Q: And the “Measurement in zone units” value ([9]; factor line, no dose given)?
A: 210 zone units

Q: What about the “Measurement in zone units” value ([10]; 20 ug per disk) of the same compound?
A: 0-100 zone units

Q: And the “Measurement in zone units” value ([10]; 80 ug per disk)?
A: 80-250 zone units

Q: And the “Measurement in zone units” value ([10]; factor line, no dose given)?
A: 0-250 zone units
